In test [1] the test system is yeast glycogen synthase (YGS). Description: Activity assay of the yeast glycogen synthase (YGS) overexpressed in Pichia. Type of test: biochemical. The settings on record: 6.7 mM UDP glucosamine, 1 mM maltoheptose, 30° C., 1 hour; preliminary results. The procedure: 6. Activity Assay of the Yeast Glycogen Synthase (YGS)
The last reaction: synthesis of cationic starch by the yeast glycogen synthase overexpressed in Pichia using UDPgluosamine and glucosyl oligosaccharide primers: […]
UDP glucosamine+starch→starch periodically interspersed with 2 amino anhydroglucose
The YGS produced from secreted expression in Pichia was isolated from the growth medium, desalted into a buffer containing 50 mM Tris-HCl and 5 mM EDTA, pH 7.8, and concentrated using Centricon-30 concentrator. The preparation was used for assaying the activity of YGS.
50 mM Tris-HCl and 5 mM EDTA, pH 7.8
6.7 mM UDP glucose or UDP glucosamine
6.7 mM glucose-6-phosphate
1 mM maltoheptose ([…], from Sigma)
Protein prep: 150 μg/300-μl reaction
Incubated at 30° C. for 1 hour.
Analyze by HPLC using Dionex's CarboPac-PA1 column with a pulsed amperometry detector (to detect the formation of elongated glusyl oligo primers);

Test [2] concerns UGPase. The test is described as follows: UGPase activity in the maize endosperm protein extract. Conditions: extract from seeds harvested 20 days after pollination. Type of test: biochemical. The procedure: For UGPase Activity in the Maize Endosperm
Weighted 8-g GS3 kernels (20 days after pollination);
Added 0.5-ml Boehringer's protease inhibitor cocktail (one tablet dissolved in 1-ml water);
Blended for 10 sec, 3×at 4° C.;
Filtered through three layers of Cheesecloth at 4° C.;
Passed two 100-μl aliquots through a BioRad's BioSpin-30 column using a swing bucked rotor in Jouan at 2100 rpm, at RT, & repeated (i.e. two Bio-Spin-30 columns used for each of the 2, 100-μl aliquots);
(§1) 48 mM Tris-HCl, pH 8.5; 19 mM MgCl2; 2.3 mM β-mercaptoethanol; 1 mM UTP; inorganic pyrophosphorylase; 2 mM glucose-1-P or glucosamine-1-P;
(§2) Carried out the reactions at 30° C. for 30 minutes;
(§3) Boiled for 5 min and passed through Centrion-10;

Test [3] concerns Phosphoglucomutase (PGM). Description: Activity assay of phosphoglucomutase (PGM), maize endosperm protein extract. Type of test: biochemical. The settings on record: extract from immature seeds, 20 days after pollination, HPLC. As to the method: (§4) 3. Activity Assay of Phosphoglucomutase (PGM)
(§5) glucosamine-6-phosphate→glucosamine-1-phosphate
(§6) 80 mM triethanolamine, pH 7.6
(§7) 20 μM glucosae-1,6-bisphosphate
(§8) 2 mM glucosamine-1-phosphate or glucosamine-6-phosphate
Maize endosperm protein extract (200-μg total protein per 1.0 ml reaction)
Ground kernels in ice-cold homogenization buffer (50 mM KH2PO4, pH 7.0; 5 mM EDTA; and 1 mM
DTT). Kernels were dissected from an ear (HN18) harvested 20 days after pollination.
Filtered the homogenate through 4-layer cheesecloth, and centrifuged at 25,000×g for 20 min at 4° C.
Desalted the supernatant into the homogenization buffer using a fast FPLC desalting column and collected the flow through.
Added PMSF and chymostatin to a final concentration of 1 mM and used the flow-through as crude PGM prep for the assay.
(§9) Incubated at 30° C. for 15 min.
(§10) * Transferred to a Centricon-30 concentrator and centrifuged at 1,400× for 20 min.
(§11) Removed 100 μl of the filtrate and added 400-μl water.
(§12) Injected 50 μl onto Dionex's CarboPac PA1 column and detected with a pulsed amperometry detector.
(§13) Eluted with 100 mM NaOH and 100 mM NaOH/1M sodium acetate (to detect formation of glucosamine-6-phosphate or glucosamine-1-phosphate): […]

The target in test [4] is T1, Baker yeast UGPase (Saccharomyces cerevisiae, UniProt P32861).
T1 construct: UDP-glucose pyrophorylases purified from Bakers yeast (U 8501); purchased Sigma U 8501; host or cells: Bakers yeast
T1 sequence (P32861 1-499): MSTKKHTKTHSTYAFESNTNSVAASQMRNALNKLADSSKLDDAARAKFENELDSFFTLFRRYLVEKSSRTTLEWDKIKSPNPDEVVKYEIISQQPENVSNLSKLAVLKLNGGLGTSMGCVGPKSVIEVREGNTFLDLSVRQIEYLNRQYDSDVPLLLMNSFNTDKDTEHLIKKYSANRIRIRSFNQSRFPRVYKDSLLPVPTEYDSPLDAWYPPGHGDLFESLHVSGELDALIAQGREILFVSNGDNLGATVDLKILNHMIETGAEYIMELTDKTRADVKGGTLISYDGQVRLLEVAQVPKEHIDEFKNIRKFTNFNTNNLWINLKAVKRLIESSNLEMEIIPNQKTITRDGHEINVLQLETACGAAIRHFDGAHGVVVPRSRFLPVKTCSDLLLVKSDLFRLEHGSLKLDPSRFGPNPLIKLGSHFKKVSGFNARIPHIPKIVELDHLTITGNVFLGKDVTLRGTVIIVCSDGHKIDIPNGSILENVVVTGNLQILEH
Description: Activity assay of UDPglucose pyrophosphorylase (UGPase), Baker yeast enzyme. Type of test: biochemical, Bakers yeast. Conditions: 2 mM substrate, 1 mM UTP, 30° C., 30 minutes, HPLC. As to the method: (§14) 4. Activity Assay of UDPglucose Pyrophosporylase (UGPase) [drawing 1]
(§15) The above reaction is evaluated with an alternative substrate, glucosamine-1-phosphate.
(§16) Enzymes: UDP-glucose pyrophorylases purified from Bakers yeast (U 8501) & bovine liver (U 5877) by Sigma;
(§17) UGPase assay was conducted per protocals used by Sigma;
50 mM Tris-HCl, pH 7.6; 16 mM MgCl2; 10 mM L-cystein, 1 mM UTP; inorganic pyrophosphorylase; 2 mM glucose-1-P or glucosamine-1-P;
as §2, §3

The target in test [5] is T2, bovine liver UGPase (Bos taurus, UniProt Q07130).
T2 construct: purchased Sigma U 5877; host or cells: bovine liver
T2 sequence (Q07130 1-508): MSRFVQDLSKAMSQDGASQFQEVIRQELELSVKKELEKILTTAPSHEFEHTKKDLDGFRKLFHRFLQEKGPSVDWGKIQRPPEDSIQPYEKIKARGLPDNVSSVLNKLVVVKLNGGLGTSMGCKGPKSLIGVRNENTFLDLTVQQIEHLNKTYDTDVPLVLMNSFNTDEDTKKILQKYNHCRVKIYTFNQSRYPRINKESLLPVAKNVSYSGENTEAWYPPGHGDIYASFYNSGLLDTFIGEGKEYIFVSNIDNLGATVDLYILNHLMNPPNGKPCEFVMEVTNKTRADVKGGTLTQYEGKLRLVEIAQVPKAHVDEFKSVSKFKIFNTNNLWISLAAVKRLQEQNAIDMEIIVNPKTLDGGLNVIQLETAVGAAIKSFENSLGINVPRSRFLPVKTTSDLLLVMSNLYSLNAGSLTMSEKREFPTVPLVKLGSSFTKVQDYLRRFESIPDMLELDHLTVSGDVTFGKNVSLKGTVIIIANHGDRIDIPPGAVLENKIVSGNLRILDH
The test is described as follows: Activity assay of UDPglucose pyrophosphorylase (UGPase), bovine liver enzyme. The test is classed as biochemical. The settings on record: 2 mM substrate, 1 mM UTP, 30° C., 30 minutes, HPLC. As to the method:
as §14, §15, §16, §17, §1, §2, §3

Test [6] deals with T3, PGM from rabbit muscle (Oryctolagus cuniculus, UniProt P00949).
T3 construct: Commercial PGM from rabbit muscle; purchased Boehringer Mannheim 108375; host or cells: rabbit muscle
T3 sequence (P00949 1-562): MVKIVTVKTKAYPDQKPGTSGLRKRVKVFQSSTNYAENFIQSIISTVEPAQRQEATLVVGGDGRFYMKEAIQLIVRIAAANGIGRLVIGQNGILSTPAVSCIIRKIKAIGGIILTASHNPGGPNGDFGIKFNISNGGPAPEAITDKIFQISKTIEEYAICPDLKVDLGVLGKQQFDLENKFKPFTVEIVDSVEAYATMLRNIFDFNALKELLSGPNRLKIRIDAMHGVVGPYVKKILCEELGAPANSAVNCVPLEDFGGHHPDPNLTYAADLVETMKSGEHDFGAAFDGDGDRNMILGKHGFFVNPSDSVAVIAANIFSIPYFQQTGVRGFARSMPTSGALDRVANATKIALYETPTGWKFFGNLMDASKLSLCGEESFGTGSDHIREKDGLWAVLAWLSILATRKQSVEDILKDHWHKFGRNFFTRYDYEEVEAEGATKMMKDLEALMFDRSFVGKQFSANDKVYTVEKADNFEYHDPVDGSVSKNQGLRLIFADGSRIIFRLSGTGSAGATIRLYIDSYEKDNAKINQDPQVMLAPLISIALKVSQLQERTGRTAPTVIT
Description: Activity assay of phosphoglucomutase (PGM), commercial rabbit muscle PGM. The test is classed as biochemical. Conditions: HPLC; for conversion of substrate by rabbit muscle PGM (glucosamine-1-phosphate to glucosamine-6-phosphate or reverse): 2 mM substrate, 30° C., 15 min, at completion/end of reaction. As to the method: as §4, §5, §6, §7, §8
Commercial PGM from rabbit muscle (Boehringer Mannheim, Catalog No. 108375)
as §9, §10, §11, §12, §13

On to `N[C@H]1[C@@H](OP(=O)(O)OP(=O)(O)OC[C@H]2O[C@@H](n3ccc(=O)[nH]c3=O)[C@H](O)[C@@H]2O)O[C@H](CO)[C@@H](O)[C@@H]1O` [UDP glucosamine], for which the “substrate recognition, transfer of glucosaminyl moiety to glucosyl oligo primers” value in test [1] is reported as “recognize UDP glucosamine as a substrate”.

As for `N[C@H]1C(OP(=O)(O)O)O[C@H](CO)[C@@H](O)[C@@H]1O` (stereo partly drawn) [glucosamine-1-phosphate], the “activity in using substrate to form UDP glucosamine” value in test [2] is “also found in maize endosperm protein extract”. Also, the “use of substrate by PGM in maize endosperm extract (result in words)” value in test [3] is recorded as “Glucosamine-6-phosphate was detected”. Further, the “substrate recognition in formation of UDP glucosamine” value in test [4] and in test [5] was “recognized glucosamine-1-P as a substrate” throughout. In addition, the “conversion of substrate by rabbit muscle PGM (glucosamine-1-phosphate to glucosamine-6-phosphate or reverse)” value in test [6] was “about 60%”.

Regarding `N[C@H]1C(O)O[C@H](COP(=O)(O)O)[C@@H](O)[C@@H]1O` (stereo partly drawn) [glucosamine-6-phosphate], the “conversion of substrate by rabbit muscle PGM (glucosamine-1-phosphate to glucosamine-6-phosphate or reverse)” value in test [6] was “about 70%”.

`O=P(O)(O)O[C@H]1O[C@H](CO)[C@@H](O)[C@H](O)[C@H]1O` [glucose-1-phosphate]: the “use of substrate by PGM in maize endosperm extract (result in words)” value in test [3] is “near complete conversion”. Further, the “use of substrate by rabbit muscle PGM (result in words)” value in test [6] (positive control, formation of glucose-6-phosphate) is “nearly depleted”.

Source of the values: US20030177534A1, “Plant glutamine:fructose-6-phosphate amidotransferase nucleic acids” (Pioneer Hi-Bred International, Inc., priority 1998, published 2003).
